No end group written: not given here.
System: multiple sclerosis pathology (EAE disease)
Test: Mouse experimental autoimmune encephalomyelitis (EAE) model
Format: in vivo, mice
Conditions: intravenous injection on day 0, 3, and 6; adoptive transfer of MOG35-55-reactive T cells
Excerpt: Myelin oligodendrocyte glycoprotein (MOG) 30-60 is a fragment of an autoantigen that is associated with multiple sclerosis that is used herein as a non-limiting example of an immunogenic fragment of MOG. […] To induce multiple sclerosis pathology (EAE disease), recipient mice were adoptively transferred on day 0 with MOG35-55-reactive T cells obtained from a separate, previously-vaccinated donor mouse. On day 0, 3, and 6, mice received via intravenous injection of either MOG30-60 peptide, MOG-30-60 peptide chemically conjugated to pGal (LT-MOG-30-60), or saline; an additional control group received administrations of a monoclonal antibody that binds VLA-4 (integrin alpha 4 beta 1). Multiple sclerosis pathology was assessed and scored daily by a pharmacology expert blinded to group identities. […] It shall be appreciated that, according to additional embodiments disclosed herein, other immunogenic fragments of MOG are effective in inducing tolerance to MOG, and thus treatment of MS.

| Substance | protection from multiple sclerosis pathology (EAE disease), daily score |
| --- | --- |
| MOG30-60: Myelin oligodendrocyte glycoprotein (MOG) 30-60 peptide, SEQ ID NO: 30, administered alone (KNATGMEVGWYRSPFSRVVHLYRNGKDQDAE; MOG 30-60; listed as Homo sapiens) | not substantively protected from disease |
| pGal-MOG30-60: MOG-30-60 peptide chemically conjugated to pGal (e.g., Polymer B) (KNATGMEVGWYRSPFSRVVHLYRNGKDQDAE; also: chemically conjugated to pGal polymer (e.g. Polymer B), site not given here; UniProt Q61885 58-88, looked up, fragment) | protected from multiple sclerosis pathology (EAE disease) |

Reference: patent US20230069712A1, “COMPOUNDS FOR THE INDUCTION OF ANTIGEN-SPECIFIC IMMUNE TOLERANCE” (Anokion SA, priority 2019, published 2023)
